Measurements taken from US20240343704A1, “HALO-SUBSTITUTED AMINO PYRIDINE COMPOUNDS AS INHIBITORS OF THE HAEMATOPOIETIC PROGENITOR KINASE 1 (HPK1)” (priority 2021, published 2024).

Each molecule was assayed against T1, Recombinant (1-346) HPK1 (h) (Homo sapiens, UniProt Q92918) (assay: HPK1 Human STE Kinase Enzymatic Radiometric Assay). Conditions: read-out: HPK1 IC50 nM Range*.
T1 construct: Recombinant (1-346) HPK1 (h) is incubated with 8 mM MOPS pH 7.0
T1 sequence (Q92918 1-346): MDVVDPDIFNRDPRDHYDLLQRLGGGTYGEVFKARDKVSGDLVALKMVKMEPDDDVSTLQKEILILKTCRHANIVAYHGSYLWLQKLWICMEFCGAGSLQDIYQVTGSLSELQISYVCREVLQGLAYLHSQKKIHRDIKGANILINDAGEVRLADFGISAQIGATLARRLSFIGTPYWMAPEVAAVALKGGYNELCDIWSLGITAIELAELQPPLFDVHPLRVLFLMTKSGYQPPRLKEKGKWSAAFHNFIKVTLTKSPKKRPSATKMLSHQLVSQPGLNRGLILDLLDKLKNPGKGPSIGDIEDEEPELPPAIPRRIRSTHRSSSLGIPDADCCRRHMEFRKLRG
Format: biochemical
Experimental: A stock solution of 10 mM of test compound is prepared in DMSO. The compound plate was prepared by 3-fold and 9-point serial dilutions. […] The reaction is initiated by The addition of the Mg/ATP mix. After incubation for 40 minutes at RT, the reaction is stopped by the addition of phosphoric acid to a concentration of 0.5%.

| Compound | IC50 |
| --- | --- |
| COC1CCN(Cc2cc(-c3cc(-c4cc5c(cc4F)C(=O)NCC5)c(N)nc3F)ccc2OCCCC(F)F)CC1 [I-527, 6-(2-amino-5-(4-(4,4-difluorobutoxy)-3-((4-methoxypiperidin-1-yl)methyl)phenyl)-6-fluoropyridin-3-yl)-7-fluoro-3,4-dihydroisoquinolin-1(2H)-one] | 11 to 100 nM |
| CN(C)Cc1cc(-c2cc(-c3ccc4c(c3)CCNC4=O)c(N)nc2F)ccc1C1CCOCC1 [I-645, 6-(2-amino-5-(3-((dimethylamino)methyl)-4-(tetrahydro-2H-pyran-4-yl)phenyl)-6-fluoropyridin-3-y)-3,4-dihydroisoquinolin-1(2H)-one] | 0.1 to 10 nM |
| CN(C)Cc1cc(-c2cc(-c3ccc4c(c3)CCNC4=O)c(N)nc2F)ccc1N1CCN(C2CC2)CC1 [I-495, 6-(2-amino-5-(4-(4-cyclopropylpiperazin-1-yl)-3-((dimethylamino)methyl)phenyl)-6-fluoropyridin-3-yl)-3,4-dihydroisoquinolin-1(2H)-one] | 11 to 100 nM |
| CN(C)Cc1nc(-c2cc(-c3cc4c(cc3F)C(=O)NCC4)c(N)nc2F)ccc1C1CCOCC1 [I-601, 6-(6′-amino-6-((dimethylamino)methyl)-2′-fluoro-5-(tetrahydro-2H-pyran-4-yl)-[2,3′-bipyridin]-5′-yl)-7-fluoro-3,4-dihydroisoquinolin-1(2H)-one] | 0.1 to 10 nM |
| CN(C)Cc1c(N2CCOCC2)ccc(-c2cc(-c3cc4c(cc3F)C(=O)NCC4)c(N)nc2F)c1F [I-607, 6-(2-amino-5-(3-((dimethylamino)methyl)-2-fluoro-4-morpholinophenyl)-6-fluoropyridin-3-yl)-7-fluoro-3,4-dihydroisoquinolin-1(2H)-one] | 11 to 100 nM |
| CN(C)Cc1cc(-c2cc(-c3ccc4c(c3)CCNC4=O)c(N)nc2F)ccc1OCCCC(F)F [I-524, 6-(2-amino-5-(4-(4,4-difluorobutoxy)-3-((dimethylamino)methyl)phenyl)-6-uoropyridin-3-yl)-3,4-dihydroisoquinolin-1(2H)-one] | 0.1 to 10 nM |
| CN(C)Cc1cc(-c2cc(-c3cc4c(cc3F)C(=O)NCC4)c(N)nc2F)ccc1F [I-618, 6-(2-amino-5-(3-((dimethylamino)methyl)-4-fluorophenyl)-6-fluoropyridin-3-yl)-7-fluoro-3,4-dihydroisoquinolin-1(2H)-one] | 11 to 100 nM |
| COC1CCN(Cc2cc(-c3cc(-c4ccc5c(c4)CCNC5=O)c(N)nc3F)ccc2OCC2CC2)CC1 [I-508, 6-(2-amino-5-(4-(cyclopropylmethoxy)-3-((4-methoxypiperidin-1-yl)methyl)phenyl)-6-fluoropyridin-3-yl)-3,4-dihydroisoquinolin-1(2H)-one] | 11 to 100 nM |
| Cc1nc2cc(-c3cc(-c4ccc(N5CCN(C6CCC6)CC5)cc4)c(F)nc3N)ccc2c(=O)[nH]1 [I-472, 7-(2-amino-5-(4-(4-cyclobutylpiperazin-1-yl)phenyl)-6-fluoropyridin-3-yl)-2-methylquinazolin-4(3H)-one] | 0.1 to 10 nM |
| Cc1c[nH]c(=O)c2ccc(-c3cc(-c4ccc(C5CCOCC5)cc4)c(F)nc3N)cc12 [I-586, 6-(2-amino-6-fluoro-5-(4-(tetrahydro-2H-pyran-4-yl)phenyl)pyridin-3-yl)-4-methylisoquinolin-1(2H)-one] | 11 to 100 nM |
| CN(C)Cc1cc(-c2cc(-c3ccc4c(c3)CCNC4=O)c(N)nc2F)ccc1OCC1CC1 [I-506, 6-(2-amino-5-(4-(cyclopropylmethoxy)-3-((dimethylamino)methyl)phenyl)-6-fluoropyridin-3-yl)-3,4-dihydroisoquinolin-1(2H)-one] | 11 to 100 nM |
| Nc1nc(F)c(-c2ccc(OC3CCNCC3)c(C(F)(F)F)c2)cc1-c1ccc2c(c1)CCNC2=O [I-190, 6-(2-amino-6-fluoro-5-(4-(piperidin-4-yloxy)-3-(trifluoromethyl)phenyl)pyridin-3-yl)-3,4-dihydroisoquinolin-1(2H)-one] | 11 to 100 nM |
| Nc1nc(F)c(-c2ccc(C3CCOCC3)c(CN3CCCC3)c2)cc1-c1ccc2c(c1)CCNC2=O [I-557, 6-(2-amino-6-fluoro-5-(3-(pyrrolidin-1-ylmethyl)-4-(tetrahydro-2H-pyran-4-yl)phenyl)pyridin-3-yl)-3,4-dihydroisoquinolin-1(2H)-one] | 11 to 100 nM |
| COC1CCN(Cc2cc(-c3cc(-c4cc5c(cc4F)C(=O)NCC5)c(N)nc3F)ccc2N2CCOCC2)CC1 [I-511, 6-(2-amino-6-fluoro-5-(3-((4-methoxypiperidin-1-yl)methyl)-4-morpholinophenyl)pyridin-3-yl)-7-fluoro-3,4-dihydroisoquinolin-1(2H)-one] | 11 to 100 nM |
| CN(C)Cc1cc(-c2cc(-c3cc4c(cc3F)C(=O)NCC4)c(N)nc2F)ccc1N1CCS(=O)(=O)CC1 [I-498, 6-(2-amino-5-(3-((dimethylamino)methyl)-4-(1,1-dioxidothiomorpholino)phenyl)-6-fluoropyridin-3-yl)-7-fluoro-3,4-dihydroisoquinolin-1(2H)-one] | 11 to 100 nM |
| Nc1nc(F)c(-c2ccc(N3CCOCC3)c(CN3CCC3)c2F)cc1-c1cc2c(cc1F)C(=O)NCC2 [I-608, 6-(2-amino-5-(3-(azetidin-1-ylmethyl)-2-fluoro-morpholinophenyl)-6-fluoropyridin-3-yl)-7-fluoro-3,4-dihydroisoquinolin-1(2H)-one] | 11 to 100 nM |
| COc1ccc(-c2cc(-c3cc4c(cc3F)C(=O)NCC4)c(N)nc2F)cc1CN1CCC(OC)CC1 [I-519, 6-(2-amino-6-fluoro-5-(4-methoxy-3-((4-methoxypiperidin-1-yl)methyl)phenyl)pyridin-3-yl)-7-fluoro-3,4-dihydroisoquinolin-1(2H)-one] | 11 to 100 nM |
| CN1CCc2c(cccc2-c2cc(-c3cc4c(cc3F)C(=O)NCC4)c(N)nc2F)C1 [I-464, 6-(2-amino-6-fluoro-5-(2-methyl-1,2,3,4-tetrahydroisoquinolin-5-yl)pyridin-3-yl)-7-fluoro-3,4-dihydroisoquinolin-1(2H)-one] | > 1000 nM |
| CC(c1cc(-c2cc(-c3ccc4c(c3)CCNC4=O)c(N)nc2F)ccc1O)N(C)C (centres unmarked) [I-624, 6-(2-amino-5-(3-(1-(dimethylamino)ethyl)-4-hydroxyphenyl)-6-fluoropyridin-3-yl)-3,4-dihydroisoquinolin-1(2H)-one] | 11 to 100 nM |

Continued, values first:

| IC50 | Compound |
| --- | --- |
| 0.1 to 10 nM | COCCN1CCc2c(C)cc(-c3cc(-c4ccc5c(c4)CCNC5=O)c(N)nc3F)cc2C1 [I-448, 6-(2-amino-6-fluoro-5-(2-(2-methoxyethyl)-5-methyl-1,2,3,4-tetrahydroisoquinolin-7-yl)pyridin-3-yl)-3,4-dihydroisoquinolin-1(2H)-one] |
| 11 to 100 nM | Nc1nc(F)c(-c2ccc(N3CCOCC3)c(CN3CCCCC3)c2)cc1-c1cc2c(cc1F)C(=O)NCC2 [I-560, 6-(2-amino-6-fluoro-5-(4-morpholino-3-(piperidin-1-ylmethyl)phenyl)pyridin-3-yl)-7-fluoro-3,4-dihydroisoquinolin-1(2H)-one] |
| 0.1 to 10 nM | Nc1nc(F)c(-c2cccc([C@@H]3CCCN3)c2)cc1-c1ccc2c(c1)CCNC2=O [I-646, (S)-6-(2-amino-6-fluoro-5-(3-(pyrrolidin-2-yl)phenyl)pyridin-3-yl)-3,4-dihydroisoquinolin-1(2H)-one] |
| 0.1 to 10 nM | Nc1nc(F)c(-c2ccc(N3CCN(CCC4CC4(F)F)CC3)cc2)cc1-c1ccc2c(c1)CCNC2=O (centres unmarked) [I-644, 6-(2-amino-5-(4-(4-(2-(2,2-difluorocyclopropyl)ethyl)piperazin-1-yl)phenyl)-6-fluoropyridin-3-yl)-3,4-dihydroisoquinolin-1(2H)-one] |
| 0.1 to 10 nM | CC(C)N1CCN(c2ccc(-c3cc(-c4ccc5c(=O)[nH]c(N)nc5c4)c(N)nc3F)cc2)CC1 [I-422, 2-amino-7-(2-amino-6-fluoro-5-(4-(4-isopropylpiperazin-1-yl)phenyl)pyridin-3-yl)quinazolin-4(3H)-one] |
| 11 to 100 nM | CN(C)Cc1cc(-c2cc(-c3cc4c(cc3F)C(=O)NCC4)c(N)nc2F)ccc1N1CCN(C2CC2)CC1 [I-494, 6-(2-amino-5-(4-(4-cyclopropylpiperazin-1-yl)-3-((dimethylamino)methyl)phenyl)-6-fluoropyridin-3-yl)-7-fluoro-3,4-dihydroisoquinolin-1(2H)-one] |
| 0.1 to 10 nM | CC(C)N1CCN(c2ccc(-c3cc(-c4cc(F)c5c(=O)[nH]cc(F)c5c4)c(N)nc3F)cc2)CC1 [I-482, 6-(2-amino-6-fluoro-5-(4-(4-isopropylpiperazin-1-yl)phenyl)pyridin-3-yl)-4,8-difluoroisoquinolin-1(2H)-one] |
| 101 to 1000 nM | CC(C)N1CCN(c2ccc(-c3cc(-c4ccc5c(=O)[nH]c(Cl)nc5c4)c(N)nc3F)cc2)CC1 [I-418, 7-(2-amino-6-fluoro-5-(4-(4-isopropylpiperazin-1-yl)phenyl)pyridin-3-yl)-2-chloroquinazolin-4(3H)-one] |
| 11 to 100 nM | CN(C)Cc1cc(-c2cc(-c3ccc4c(c3)CCNC4=O)c(N)nc2F)ccc1OCC(F)F [I-555, 6-(2-amino-5-(4-(2,2-difluoroethoxy)-3-((dimethylamino)methyl)phenyl)-6-fluoropyridin-3-yl)-3,4-dihydroisoquinolin-1(2H)-one] |
| 0.1 to 10 nM | Nc1nc(F)c(-c2ccc(CN3CCOCC3)cc2)cc1-c1cc(F)c2c(c1)CCNC2=O [I-360, 6-(2-amino-6-fluoro-5-(4-(morpholinomethyl)phenyl)pyridin-3-yl)-8-fluoro-3,4-dihydroisoquinolin-1(2H)-one] |
